The values that follow are results of earlier work, collected in patent US20250186347A1 (priority 2025, published 2025).

The test system of the series is E. faecalis ampicillin-resistant strains. The conditions noted are these: reports.

As usually defined, the MIC is the lowest concentration that inhibits growth of the organism. Take `CC1(C)S[C@@H]2[C@H](NC(=O)[C@H](N)c3ccccc3)C(=O)N2[C@H]1C(=O)O` [ampicillin]: the MIC is 4 to 8 µg/mL.
